The numbers were not newly measured in patent US6355226B1, “Topical treatment of skin disease and eye afflictions” (Advanced Viral Research Corp., priority 1997, dated 2002), which cites them from elsewhere.

Molecules are shown by their SMILES.

One series relates to genital herpes infection. Conditions: topically administered ointment.
Series [1] concerns herpes simplex 1 and 2 (HSV 1 and 2).

As for `Nc1nc2c(ncn2COCCO)c(=O)[nH]1` [acyclovir], in the series on cytomegalovirus (CM), the effectiveness against cytomegalovirus result is “not against cytomegalovirus”. In the series on genital herpes infection, the “effect on recurrent genital herpes disease” value is reported as “little if any, effect” and the “effectiveness in primary first occurrence of genital herpes infection” value is listed as “seems to be effective”. Further, the “effectiveness against HSV 1 and 2” value in series [1] was “specifically effective”.
